From article PMC8234231, “In Vitro Inhibition of Renal OCT2 and MATE1 Secretion by Antiemetic Drugs” (International Journal of Molecular Sciences, 2021) come the findings set out here.

Data set [1] deals with T1, MATE1 (Homo sapiens, UniProt Q96FL8).
T1 construct: expressed in transfected cells; gift of Dr. Kathy Giacomini, UCSF
T1 sequence (Q96FL8 1-570): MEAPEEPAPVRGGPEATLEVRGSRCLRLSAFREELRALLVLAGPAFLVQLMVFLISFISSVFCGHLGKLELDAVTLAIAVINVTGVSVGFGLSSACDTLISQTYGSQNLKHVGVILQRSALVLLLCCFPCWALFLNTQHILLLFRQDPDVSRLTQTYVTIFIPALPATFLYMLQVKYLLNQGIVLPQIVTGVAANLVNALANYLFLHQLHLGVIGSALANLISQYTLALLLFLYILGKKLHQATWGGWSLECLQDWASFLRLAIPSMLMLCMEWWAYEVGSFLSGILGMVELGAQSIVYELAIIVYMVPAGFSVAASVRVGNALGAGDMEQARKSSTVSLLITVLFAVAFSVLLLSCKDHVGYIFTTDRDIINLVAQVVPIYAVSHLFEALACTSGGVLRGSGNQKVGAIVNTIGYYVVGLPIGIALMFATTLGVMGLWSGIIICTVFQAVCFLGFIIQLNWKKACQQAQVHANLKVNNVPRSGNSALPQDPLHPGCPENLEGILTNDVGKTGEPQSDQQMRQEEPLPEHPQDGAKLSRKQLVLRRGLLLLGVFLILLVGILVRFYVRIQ
The data set is described as follows: Concentration-dependent uptake of ASP+ in MATE1-expressing HEK293 cells. Type of data set: cell-based. The protocol: After washing once with prewarmed Hank’s Buffered Saline Solution (HBSS), cells were preincubated for 30 min at 37 °C with various 5-HT3 antagonists for OCT2 cells or in a 30 mM NH4Cl solution in HBSS at pH 6.5 for MATE1 cells for intracellular acidification. […] […] […] Media was removed and washed four times with ice-cold HBSS. Cells were lysed with 1% Triton X-100. […] Experiments were repeated three separate times, with three to four replicates in each experiment.
GraphPad Prism v6 (GraphPad Software, La Jolla, CA, USA) was used for statistical analysis.

The test system of data set [2] is empty vector (EV) HEK293 cells. The data set is described as follows: Concentration-dependent uptake of ASP+ in empty vector HEK293 cells. Type of data set: cell-based, human. The note with it: EV HEK293, 0–100 μM, 1 min. The protocol: Figure 2 Time and Concentration-Dependent Accumulation of ASP^+ in HEK293 Cells Overexpressing OCT2 or MATE1. HEK cells expressing empty vector (EV), OCT2, or MATE1 were incubated for different time periods (0.5–20 min, 10 μM ASP^+, 37 °C) to evaluate time-dependent uptake (A) or with increasing concentrations of ASP^+ (0–100 μM, 1 min 37 °C) for concentration-dependent uptake (B) on a shaker. Specific transport uptake is shown in dashed lines. Intracellular fluorescence was quantified and normalized to protein concentration. Data are presented as mean ± SE (n = 3).
OCT2- and MATE1-overexpressing HEK293 cells were seeded in clear poly-^D-lysine-coated 24-well plates (Fisher Scientific, Hanover Park, IL, USA) and grown for 24 h until approximately 90% confluent. […]
GraphPad Prism v6 (GraphPad Software, La Jolla, CA, USA) was used for statistical analysis. Km and Vmax were calculated using nonlinear regression (Michaelis–Menten enzyme kinetics equation, (Y = Vmax × X/(Km + X), fit for least squares). Data with two variables were analyzed using a two-way ANOVA followed by a one-way ANOVA and/or Dunnett’s post-hoc test for multiple comparisons. IC50 values were calculated via a nonlinear regression to fit least squares. Differences were considered statistically significant at p < 0.05.

Data set [3] has as its system OCT2 and MATE1. The data set is described as follows: Bidirectional transcellular flux of ASP+ in OCT2/MATE1 double-transfected MDCK cells. Type of data set: cell-based, human. The note with it: human, ASP+ 25 μM, read-out: B-to-A/A-to-B efflux ratio. As for the experimental part: (§1) Figure 4 Transcellular Flux of ASP^+ in Control and OCT2/MATE1-Transfected MDCK cells. (A). Protein expression of OCT2 (~63 kDa,) and MATE1 (~54 kDa) in vector control MDCK cells (lanes 1–2) and OCT2/MATE1 double transfected (lanes 3–4). (B). Cells were incubated with ASP^+ (25 μM) in either apical or basolateral media for 120 min and fluorescence in apical or basolateral media was quantified (A-to-B: apical-to-basolateral; B-to-A: basolateral-to-apical). ^† p < 0.05 compared to A-to-B. ^‡ p < 0.05 compared to vector. (C). Cells were incubated with ASP^+ (25 μM) in basolateral media and positive control inhibitors in apical and basolateral media for 120 min. Fluorescence was measured in the apical chamber. (D). Intracellular fluorescence was quantified and normalized to protein concentration. Data are expressed as mean ± SE (n = 3). * p < 0.05 compared to no inhibitor. CIM–Cimetidine; PYR–Pyrimethamine; OLA–Olanzapine.
(§2) Cells were incubated with 5-HT3 antagonists in the apical chamber in HBSS pH 6.0 and 5-HT3 antagonists with ASP^+ (25 μM) in the basolateral chamber in HBSS pH 7.4 and incubated at 37 °C for 120 min. […]

For data set [4], the system named is human OCT2 and MATE1. Described as above. Type of data set: cell-based. The note with it: ASP+ 25 μM, 120 min. The protocol:
as §1, §2

Data set [5] can be described thus: Bidirectional transcellular flux of ASP+ in control MDCK cells. In kind it is cell-based, canine. The note with it: dog, ASP+ 25 μM, read-out: B-to-A transport relative to A-to-B transport. The protocol:
as §1, §2

Data set [6] deals with MDCK monolayers. The data set is described as follows: Passive permeability of lucifer yellow across MDCK monolayers. In kind it is in vitro ADME, canine. The note with it: lucifer yellow 20 μM, B-to-A, 1 h. As for the experimental part: Both MDCK cell lines were seeded on 0.4 μm transwell inserts (VWR, Radnor, PA, USA) at a density of 2 × 10^5 cells/cm^2. […] The integrity of MDCK monolayers was verified by measuring transepithelial electrical resistance (TEER) >150 Ω*cm^2 using an epithelial voltohmmeter, EVOM^2 (World Precision Instruments, Sarasota, FL). Proper formation of tight junctions was also verified by measurement of passive permeability of lucifer yellow in the basolateral-to-apical (B-to-A) direction. Lucifer yellow (20 μM) was applied to the basolateral chamber for 1 h, and media were collected from the apical chamber.

In general, Km refers to the concentration of substrate that gives half-maximal velocity. For `CN(C)c1ccc(C=Cc2cc[n+](C)cc2)cc1.[I-]` [ASP^+, 4-(4-(Dimethylamino)styryl)-N-methylpyridinium iodide], the “Vmax of ASP+ uptake” value turned out to be 3.4 nmol/mg/min in data set [1] (MATE1-expressing HEK293, 0–100 μM, 1 min) and 1.9 nmol/mg/min in data set [2]. Further, in data set [1] (human, HEK293 cells overexpressing MATE1, pH 7.4, MATE1-expressing HEK293, 0–100 μM), the Km at 1 min stood at 8.2 µM. Further, the Km in data set [2] was 37.3 µM. The efflux ratio at 120 min, 25 μM worked out at 2.7 in data set [3] and 1.7 in data set [5] (120 min). In data set [4], the “B-to-A transport relative to A-to-B transport” value is given as “up to 2.8 fold”. For the same compound, in data set [5] (90 min), the efflux ratio at 90 min, 25 μM was 1.3.

Turning to Lucifer yellow, the “Average passive permeability (Papp)” value in data set [6] was determined as 0.7 ×10⁻⁶ cm/s.
